Results from PubChem BioAssay (NCI).
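Following 48 hours of exposure in 96-well plates, responses at five concentrations were used to interpolate endpoints linearly. TGI: total growth inhibition.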

Key:
Test in all cases: growth of human tumour cells (NCI), 48 h
[1] = tested on: 786-0 renal
[2] = tested on: A498 renal
[3] = tested on: A549 NSCLC
[4] = tested on: ACHN renal
[5] = tested on: BT-549 breast
[6] = tested on: CAKI-1 renal
[7] = tested on: CCRF-CEM leukemia
[8] = tested on: COLO 205 colon
[9] = tested on: DU-145 prostate
[10] = tested on: EKVX NSCLC
[11] = tested on: HCT-116 colon
[12] = tested on: HCT-15 colon
[13] = tested on: HL-60(TB) leukemia
[14] = tested on: HOP-62 NSCLC
[15] = tested on: HOP-92 NSCLC
[16] = tested on: HS 578T breast
[17] = tested on: HT29 colon
[18] = tested on: IGROV1 ovarian
[19] = tested on: K-562 leukemia
[20] = tested on: KM12 colon
[21] = tested on: LOX IMVI melanoma
[22] = tested on: M14 melanoma
[23] = tested on: MALME-3M melanoma
[24] = tested on: MCF7 breast
[25] = tested on: MDA-MB-231 breast
[26] = tested on: MDA-MB-435
[27] = tested on: MDA-N
[28] = tested on: MOLT-4 leukemia
[29] = tested on: NCI-H226 lung
[30] = tested on: NCI-H460 lung
[31] = tested on: NCI-H522 lung
[32] = tested on: NCI/ADR-RES ovarian
[33] = tested on: OVCAR-3 ovarian
[34] = tested on: OVCAR-4 ovarian
[35] = tested on: OVCAR-5 ovarian
[36] = tested on: OVCAR-8 ovarian
[37] = tested on: PC-3 prostate
[38] = tested on: RPMI-8226 leukemia
[39] = tested on: RXF 393 renal
[40] = tested on: SF-268 CNS
[41] = tested on: SF-295 CNS
[42] = tested on: SF-539 CNS
[43] = tested on: SK-MEL-2 melanoma
[44] = tested on: SK-MEL-28 melanoma
[45] = tested on: SK-MEL-5 melanoma
[46] = tested on: SK-OV-3 ovarian
[47] = tested on: SN12C renal
[48] = tested on: SNB-19 CNS
[49] = tested on: SNB-75 CNS
[50] = tested on: SR leukemia
[51] = tested on: SW-620 colon
[52] = tested on: T-47D breast
[53] = tested on: TK-10 renal
[54] = tested on: U251 CNS
[55] = tested on: UACC-257 melanoma
[56] = tested on: UACC-62 melanoma
[57] = tested on: UO-31 renal

## CN(C)CCCN1c2ccccc2Sc2cnccc21
[1]
  TGI: > 100 µM
[2]
  TGI: > 100 µM
[3]
  TGI: > 100 µM
[4]
  TGI: > 100 µM
[5]
  TGI: > 100 µM
[6]
  TGI: > 100 µM
[7]
  TGI: > 100 µM
[8]
  TGI: > 100 µM
[9]
  TGI: > 100 µM
[10]
  TGI: > 100 µM
[11]
  TGI: > 100 µM
[12]
  TGI: > 100 µM
[13]
  TGI: > 100 µM
[14]
  TGI: > 100 µM
[15]
  TGI: > 100 µM
[16]
  TGI: > 100 µM
[17]
  TGI: > 100 µM
[18]
  TGI: > 100 µM
[19]
  TGI: > 100 µM
[20]
  TGI: > 100 µM
[21]
  TGI: > 100 µM
[22]
  TGI: > 100 µM
[23]
  TGI: > 100 µM
[24]
  TGI: > 100 µM
[25]
  TGI: > 100 µM
[26]
  TGI: > 100 µM
[27]
  TGI: > 100 µM
[28]
  TGI: > 100 µM
[29]
  TGI: > 100 µM
[30]
  TGI: > 100 µM
[31]
  TGI: > 100 µM
[32]
  TGI: > 100 µM
[33]
  TGI: > 100 µM
[34]
  TGI: > 100 µM
[35]
  TGI: > 100 µM
[36]
  TGI: > 100 µM
[37]
  TGI: > 100 µM
[38]
  TGI: > 100 µM
[39]
  TGI: > 100 µM
[40]
  TGI: > 100 µM
[41]
  TGI: > 100 µM
[42]
  TGI: > 100 µM
[43]
  TGI: 94 µM
[44]
  TGI: > 100 µM
[45]
  TGI: > 100 µM
[46]
  TGI: > 100 µM
[47]
  TGI: > 100 µM
[48]
  TGI: > 100 µM
[49]
  TGI: > 100 µM
[50]
  TGI: > 100 µM
[51]
  TGI: > 100 µM
[52]
  TGI: > 100 µM
[53]
  TGI: > 100 µM
[54]
  TGI: > 100 µM
[55]
  TGI: 49.5 µM
[56]
  TGI: > 100 µM
[57]
  TGI: > 100 µM
